Some results are limits rather than exact numbers.

We go through 82 compounds from ChEMBL document CHEMBL3988442, “University of Dundee, Small-Polar-MMV Screening Library” (2021).

Test [1] can be described thus: microbe, parasite or virus in culture. The following applies: Mycobacterium tuberculosis, 96 h, read-out: pIC50 (converted).
Test [2] is described as follows: microbe, parasite or virus in culture. As to conditions: Mycobacterium tuberculosis, 72 h, read-out: pIC50 (converted).

`COc1c(F)cc(CN2CC[C@@H](N)[C@H](O)C2)cc1Cl`: the IC50 in test [1] was > 501 µM; in test [2] it was 279 µM.

For `COc1ccc(CN2C[C@H](O)[C@@H](N(C)C)C2)c(C)c1C`, the IC50 in test [1] was 349 µM; in test [2], 105 µM.

Regarding `COC[C@H]1CCCN1c1nccc(-c2cnn(-c3ccccc3C)c2)n1`, the results for the IC50 in test [1] and in test [2] were 43.3 µM and 17.8 µM, respectively.

As for `N[C@H]1CCCN(S(=O)(=O)c2ccc(C(=O)NCC(F)F)cc2)C1`, the IC50 in test [1] and in test [2] was > 50.1 µM each time.

On to `O=C(CN1CCNCC1)c1ccco1`, for which the IC50 was 186 µM in test [1] and 239 µM in test [2].

With `Cc1cc(NC2CCC(=O)N(C)C2)n2nccc2n1` (centres undefined), the IC50 in test [1] and in test [2] was > 50.1 µM throughout.

Take `COc1ccc(CCNc2ccc3nnnn3n2)cc1`: the IC50 in test [1] and in test [2] was > 501 µM in each case.

Consider `CCOC(=O)c1cnc(N2CCNCC2)s1`, for which the IC50 is 240 µM in test [1] and 256 µM in test [2].

As for `Cc1nc(CN2CCC(CNC(=O)NCCC3CCC3)CC2)oc1C`, the IC50 was 0.791 µM in test [1] and 1.06 µM in test [2].

Take `CN(C1(C#N)CCC1)S(=O)(=O)c1cccs1`: the IC50 in test [1] was > 501 µM; in test [2] it was 323 µM.

With `CS(=O)(=O)NCC1CCCN(C(=O)Nc2ccccc2Cl)C1` (centres undefined), the IC50 in test [1] and in test [2] was > 50.1 µM in each case.

For the compound `O=C(NCc1cccc(Cl)c1)c1cnns1`, the results for the IC50 in test [1] and in test [2] were 159 µM and 297 µM, respectively.

With `Cc1cccc(C(=O)NCC(C)N2CCCC2)n1` (centres undefined), the figures for the IC50 in test [1] and in test [2] were > 501 µM and 306 µM, respectively.

On to `O=C(CSc1cnn[nH]1)OCc1ccccc1`, for which the values for the IC50 in test [1] and in test [2] were > 501 µM and 67.9 µM, respectively.

In the case of `Nc1nc(CCCNC(=O)Cc2ccsc2)cs1`, the IC50 in test [1] and in test [2] was > 501 µM throughout.

In the case of `CCc1noc(Cn2nc(C(F)(F)F)ccc2=O)n1`, the IC50 in test [1] was 365 µM; in test [2], 47.8 µM.

Regarding `Nc1nnc(SCC(=O)NCCc2cccc(Cl)c2)s1`, the results for the IC50 in test [1] and in test [2] were > 501 µM and 287 µM, respectively.

With `Cc1occc1C(=O)NCC(CO)Cc1cccs1` (centres undefined), the IC50 in test [1] and in test [2] was > 501 µM throughout.

In the case of `NCCn1nc(C2CCN(Cc3ccccc3Cl)C2)c2nccnc21` (centres undefined), the IC50 in test [1] and in test [2] was > 50.1 µM in each case.

Take `O=C(Nc1ccnc(CO)c1)c1ccc(F)cc1I`: the IC50 in test [1] was 433 µM; in test [2], 367 µM.

As for `COc1cccc(-c2ncc(CN3CC[C@H]4CC[C@@H](C3)N4)s2)c1`, the IC50 in test [1] is 24.5 µM; in test [2], 41.2 µM.

For `NCCc1nc(-c2cccc(Cl)c2)no1`, the IC50 is 190 µM in test [1] and 122 µM in test [2].

`CCN(C)C(=O)Nc1ccc(C(=O)OC)c(F)c1`: the IC50 in test [1] and in test [2] was > 501 µM each time.

For the compound `CCN(C)Cc1nc(-c2ccccc2NS(C)(=O)=O)oc1C`, the IC50 in test [1] and in test [2] was > 50.1 µM throughout.

As for `Cc1csc(N2CCN(C(=O)c3ccc(C)s3)CC2)n1`, the IC50 in test [1] was 15.5 µM; in test [2], > 50.1 µM.

With `Cc1cccc(NC(=O)CN(C)Cc2nnsc2Cl)n1`, the IC50 is > 501 µM in test [1] and 246 µM in test [2].

Turning to `N#CCC1(O)CN(S(=O)(=O)C=Cc2ccc(Cl)cc2)C1`, the IC50 in test [1] was > 501 µM; in test [2], 287 µM.

Take `Cc1nn(C)c(C)c1CN(CCO)C(=O)C1COc2ccccc2C1` (centres undefined): the IC50 in test [1] and in test [2] was > 50.1 µM throughout.

Consider `CNc1nc(C(=O)NC2COc3ccccc3C2)cs1` (centres undefined), for which the results for the IC50 in test [1] and in test [2] were 262 µM and 130 µM, respectively.

Regarding `CCn1nnc(NCc2ccccc2OCc2ccc(Cl)cc2)n1`, the IC50 in test [1] is 0.308 µM; in test [2], > 50.1 µM.

For the compound `Cc1nc(N2CCCC2)nc2c1CCN(Cc1ccco1)CC2`, the IC50 is 4.23 µM in test [1] and 4.72 µM in test [2].

Consider `NC1CCN(c2ncccc2Cl)C1` (centres undefined), for which the IC50 in test [1] is 217 µM; in test [2] it was 135 µM.

On to `Cc1cc(OC(F)F)c(C2NC(=O)CN2C)cc1C` (centres undefined), for which the IC50 in test [1] and in test [2] was > 501 µM throughout.

As to `N#CCCCn1nnc(-c2ccccc2)n1`, the figures for the IC50 in test [1] and in test [2] were 178 µM and 191 µM, respectively.

Turning to `Cn1cc(C(N)=O)c(NC(=O)c2ccc(Br)cc2)n1`, the figures for the IC50 in test [1] and in test [2] were > 501 µM and 257 µM, respectively.

For the compound `Cc1cccc(CN(CC(N)=O)Cc2ccccn2)c1`, the IC50 in test [1] is > 501 µM; in test [2], 194 µM.

For `CC1(C)CNCCC(=O)C1`, the IC50 in test [1] is 246 µM; in test [2] it was 259 µM.

Turning to `CCOc1ccc(CC(=O)N2CCN(CC)CC2)cc1`, the IC50 in test [1] is > 501 µM; in test [2], 371 µM.

As to `NCc1cccc(-c2nc(-c3ccncc3)no2)c1`, the IC50 is 286 µM in test [1] and > 501 µM in test [2].

In the case of `N#CC1(NC(=O)CCc2ccc(Cl)s2)CCOCC1`, the IC50 is > 501 µM in test [1] and 236 µM in test [2].

On to `CCc1ccccc1OC1CN(C(=O)c2ccsc2)C1`, for which the IC50 in test [1] is > 50.1 µM; in test [2] it was 8.19 µM.

In the case of `CCc1ncc(CN(CCc2ccccc2)Cc2cccs2)cn1`, the values for the IC50 in test [1] and in test [2] were 9.25 µM and 19.7 µM, respectively.

As for `Cn1cc(Cn2nc(-c3ccco3)oc2=O)cn1`, the results for the IC50 in test [1] and in test [2] were > 501 µM and 187 µM, respectively.

Consider `COc1ccnc(CN2CCCC2CSC)c1OC` (centres undefined), for which the IC50 in test [1] is > 501 µM; in test [2], 180 µM.

For `O=C(NCC1(O)COCCN(Cc2cccc(O)c2)C1)c1cscn1` (centres undefined), the IC50 in test [1] and in test [2] was > 50.1 µM each time.

Consider `CC(C)(O)CSc1nnc(NCc2ccco2)s1`, for which the IC50 in test [1] is 55.2 µM; in test [2], 118 µM.

For the compound `CC(N)Cc1ccccc1Sc1ccc(O)cc1` (centres undefined), the IC50 in test [1] and in test [2] was > 50.1 µM throughout.

With `CN(C)c1nccc(CNc2ccc(C#N)nc2)n1`, the values for the IC50 in test [1] and in test [2] were 249 µM and 128 µM, respectively.

As for `Cc1cc(OCC(=O)NCc2ccccc2F)no1`, the IC50 in test [1] is 118 µM; in test [2], 73.3 µM.

In the case of `COc1c(Br)cccc1CCNC(=O)c1csnn1`, the IC50 in test [1] and in test [2] was > 50.1 µM in each case.

As to `O=C(Nc1ccc(Cl)cn1)c1ccncc1`, the IC50 in test [1] was > 501 µM; in test [2], 304 µM.

In the case of `O=C(CSCc1ccc(Cl)s1)N1CCOCC1`, the results for the IC50 in test [1] and in test [2] were 286 µM and 304 µM, respectively.

For `COc1ccc(F)cc1C(=O)OCC(=O)NC1CC1`, the IC50 in test [1] is 212 µM; in test [2], 105 µM.

Regarding `CCn1nc(C)c2nc(C)nc(NCCc3ccc(C)cc3)c21`, the figures for the IC50 in test [1] and in test [2] were 42.5 µM and 47.4 µM, respectively.

`CN(C)C(CN)c1cccc(F)c1` (centres undefined): the IC50 in test [1] and in test [2] was > 501 µM each time.

For the compound `O=C(CCC1CCCC1)N1CCC(c2cc3ncccc3c(O)n2)CC1`, the IC50 in test [1] is 0.855 µM; in test [2] it was > 50.1 µM.

Regarding `CCn1c(SCC(N)=O)nnc1-c1cc(Br)cs1`, the IC50 is 249 µM in test [1] and 254 µM in test [2].

Consider `Cc1nc(CNCC2COCc3c(-c4ccoc4)nnn3C2)cs1` (centres undefined), for which the IC50 in test [1] and in test [2] was > 50.1 µM in each case.

`CSc1ccc(CC(=O)N(C)Cc2ccon2)cc1`: the IC50 in test [1] and in test [2] was > 501 µM throughout.

`CC(O)(CNc1ncccc1F)C1CCCC1` (centres undefined): the IC50 in test [1] is 262 µM; in test [2], 142 µM.

As for `O=C(CSc1nnnn1Cc1cccs1)NC1CC1`, the IC50 is 216 µM in test [1] and 492 µM in test [2].

On to `COC(=O)c1csc(NC(=O)CCn2cccn2)c1`, for which the IC50 in test [1] was > 501 µM; in test [2], 303 µM.

With `COc1ncccc1CNS(=O)(=O)c1cccc(Cl)c1`, the IC50 was 311 µM in test [1] and 230 µM in test [2].

With `c1ccc(CN2CCCN(c3ccccn3)CC2)nc1`, the IC50 is 236 µM in test [1] and 196 µM in test [2].

For `Cc1ccc(C(=O)N2CCCC(c3cc(C(F)(F)F)[nH]n3)C2)o1` (centres undefined), the IC50 in test [1] is 26.2 µM; in test [2], 15.4 µM.

In the case of `Cc1nsc(C(=O)NCCc2ccc(Cl)cc2)n1`, the IC50 in test [1] is 12.7 µM; in test [2] it was 19.4 µM.

In the case of `CC(C)c1nnc(CN2CC(n3cccn3)Cc3ccccc32)o1` (centres undefined), the IC50 in test [1] and in test [2] was > 50.1 µM in each case.

For `CCCC(C#N)NC(=O)c1ccn(-c2ccccc2)n1` (centres undefined), the IC50 in test [1] was > 501 µM; in test [2], 294 µM.

`CCc1ccccc1NC(=O)NCc1nnc(SC)n1C`: the IC50 in test [1] and in test [2] was > 50.1 µM each time.

Turning to `CSCCC1c2nc[nH]c2CCN1Cc1[nH]c2ccc(F)cc2c1C` (centres undefined), the IC50 in test [1] and in test [2] was > 50.1 µM each time.

For the compound `O=C(Cn1ccc(C(F)(F)F)n1)NCc1ccco1`, the IC50 in test [1] and in test [2] was > 501 µM each time.

With `O=C(NCc1ccc(CO)cc1)C1CCOc2ccccc2C1` (centres undefined), the IC50 in test [1] is 12.2 µM; in test [2] it was > 50.1 µM.

On to `O=C(CSCCO)Nc1ncc(-c2ccccc2)s1`, for which the values for the IC50 in test [1] and in test [2] were 272 µM and 174 µM, respectively.

With `COc1ccc(Br)c(CN)c1`, the IC50 is 184 µM in test [1] and 116 µM in test [2].

In the case of `CCC[C@H]1CN(S(=O)(=O)c2ccnn2CCC)C[C@@H]1N`, the IC50 in test [1] is > 501 µM; in test [2], 283 µM.

Consider `COc1cc(C)sc1C(=O)NCCNc1ccccc1`, for which the figures for the IC50 in test [1] and in test [2] were 4.3 µM and 5.82 µM, respectively.

On to `CC(C)C(O)CCNC(=O)Cc1cccc(O)c1` (centres undefined), for which the results for the IC50 in test [1] and in test [2] were > 501 µM and 430 µM, respectively.

Take `Cc1cc(CN2CCC(Oc3cccnc3)CC2)on1`: the IC50 in test [1] and in test [2] was > 501 µM in each case.

`CC(C)Oc1ccc(CSc2nnc(CN3CCCC3=O)o2)cc1`: the values for the IC50 in test [1] and in test [2] were 14.5 µM and 43.5 µM, respectively.

Consider `CC(C)Nc1ncccc1C(=O)Nc1nncs1`, for which the IC50 in test [1] and in test [2] was > 501 µM throughout.

Turning to `CCOc1ncc(C(=O)NCC(C)(O)C(C)C)cc1Cl` (centres undefined), the IC50 in test [1] is 141 µM; in test [2], 59.9 µM.

On to `CCS(=O)(=O)N(C)C(=O)CCc1c[nH]c2ccccc12`, for which the results for the IC50 in test [1] and in test [2] were 97.3 µM and 44.8 µM, respectively.
